Measured values taken from patent US20160242416A1, “FUNGICIDAL ISOXAZOLINE CARBINOLS” (E I DU PONT DE NEMOURS AND COMPANY, priority 2015, published 2016).
Where two headings read alike, the source gives them in different places.

Experiments:
Plasmopara viticola = experiment: Test A: grape downy mildew, preventive spray on grape seedlings; assay type: in vivo; conditions: 100 = 100% disease control, 0 = no control
From the text: A dash (-) indicates no test results.

Phytophthora infestans = assay type: in vivo; conditions: 100 = 100% disease control; for Test C rating (% disease control): tomato late blight, 0 = no control; for Test C disease control rating: 50 ppm test solution (asterisked compounds), 0 = no control relative to controls
Botrytis cinerea = experiment: Test B: gray mold, preventive spray on tomato seedlings; conditions: 100 = 100% disease control; for Test B rating (% disease control): gray mold on tomato, 0 = no control; for Test B disease control rating: 50 ppm test solution (asterisked compounds), 0 = no control relative to controls
From the text: General protocol for preparing test solutions for Tests A-G: the test compounds were first dissolved in acetone in an amount equal to 3% of the final volume and then suspended at the desired concentration (in ppm) in acetone and purified water (50/50 mix by volume) containing 250 ppm of the surfactant PEG400 (polyhydric alcohol esters). The resulting test suspensions were then used in Tests A-G. Compounds were sprayed at a concentration of 50 ppm (*) or 10 ppm to the point of run-off on the test plants, the equivalent of a rate of 200 g/ha or 40 g/ha, respectively.
The test solution was sprayed to the point of run-off on tomato seedlings. The following day the seedlings were inoculated with a spore suspension of Botrytis cinerea (the causal agent of gray mold on many crops) and incubated in a saturated atmosphere at 20° C. for 48 h, and moved to a growth chamber at 27° C. for 2 days, after which time visual disease ratings were made.
Compounds with an asterisks (*) were applied at a concentration of 50 ppm, otherwise test solutions were applied at 10 ppm.

[1] = system: Puccinia recondita f sp. tritici; experiment: Test F: wheat leaf rust, preventive spray on wheat seedlings; conditions: 100 = 100% disease control; for Test F rating (% disease control): wheat leaf rust, 0 = no control; for Test F disease control rating: 50 ppm test solution (asterisked compounds), 0 = no control relative to controls
Zymoseptoria tritici = experiment: Test E: wheat leaf blotch, preventive spray on wheat seedlings; conditions: 100 = 100% disease control; for Test E rating (% disease control): wheat leaf blotch, 0 = no control; for Test E disease control rating: 50 ppm test solution (asterisked compounds), 0 = no control relative to controls
Stagonospora nodorum = experiment: Test D: wheat glume blotch, preventive spray on wheat seedlings; conditions: 100 = 100% disease control; for Test D rating (% disease control): wheat glume blotch, 0 = no control; for Test D disease control rating: 50 ppm test solution (asterisked compounds), 0 = no control relative to controls
[2] = system: Erysiphe graminis f sp. tritici; experiment: Test G: wheat powdery mildew, preventive spray on wheat seedlings; conditions: 100 = 100% disease control; for Test G rating (% disease control): wheat powdery mildew, 0 = no control; for Test G disease control rating: 50 ppm test solution (asterisked compounds), 0 = no control relative to controls

| SMILES | Test A rating (% disease control) (Plasmopara viticola; 10 ppm) [%] | Test C rating (% disease control) (Phytophthora infestans; 10 ppm) [%] | Test B rating (% disease control) (Botrytis cinerea; 10 ppm) [%] | Test F rating (% disease control) ([1]; 10 ppm) [%] | Test E rating (% disease control) (Zymoseptoria tritici; 10 ppm) [%] | Test D rating (% disease control) (Stagonospora nodorum; 10 ppm) [%] | Test G rating (% disease control) ([2]; 10 ppm) [%] | Test C rating (% disease control) (Phytophthora infestans; 50 ppm (asterisk)) [%] | Test B rating (% disease control) (Botrytis cinerea; 50 ppm (asterisk)) [%] | Test F rating (% disease control) ([1]; 50 ppm (asterisk)) [%] | Test E rating (% disease control) (Zymoseptoria tritici; 50 ppm (asterisk)) [%] | Test D rating (% disease control) (Stagonospora nodorum; 50 ppm (asterisk)) [%] | Test G rating (% disease control) ([2]; 50 ppm (asterisk)) [%] | further results |
| --- | --- | --- | --- | --- | --- | --- | --- | --- | --- | --- | --- | --- | --- | --- |
| OC(Cn1cncn1)(C1=NOC(c2ccc(-n3cncn3)cc2)C1)c1ccc(Cl)cc1 (mixture of isomers) [Compound 2] | 33 | 0 | 0 | 100 | 0 | 0 | 99 | – | – | – | – | – | – | – |
| CCC(O)(Cn1cncn1)C1=NOC(c2ccc(Cl)cc2)C1 (mixture of isomers) [Compound 34] | – | – | – | – | – | – | – | 0 | 0 | 53 | 0 | 99 | 100 | Test A rating (% disease control) (Plasmopara viticola; 50 ppm (asterisk)): 34% |
| CC(C)C(O)(Cn1cncn1)C1=NOC(c2ccc(Cl)cc2)C1 (single isomer, unassigned) [Compound 3] | 9 | 0 | 46 | 97 | 0 | 100 | 100 | – | – | – | – | – | – | – |
| CC(C)C(O)(Cn1cncn1)C1=NOC(c2ccc(Cl)cc2)C1 (single isomer, unassigned) [Compound 4] | 0 | 0 | 9 | 98 | 0 | 100 | 99 | – | – | – | – | – | – | – |
| CC(O)(Cn1cncn1)C1=NOC(c2ccc(Cl)cc2)C1 (single isomer, unassigned) [Compound 35] | – | – | – | – | – | – | – | 0 | 0 | 40 | 0 | 63 | 100 | Test A rating (% disease control) (Plasmopara viticola; 50 ppm (asterisk)): 21% |
| CC(O)(Cn1cncn1)C1=NOC(c2ccc(Cl)cc2)C1 (single isomer, unassigned) [Compound 36] | – | – | – | – | – | – | – | 0 | 0 | 17 | 0 | 53 | 99 | Test A rating (% disease control) (Plasmopara viticola; 50 ppm (asterisk)): 11% |
| OC(Cn1cncn1)(C1=NOC(COc2ccc(Cl)cc2)C1)c1ccc(Cl)cc1 (single isomer, unassigned) [Compound 61] | 4 | 0 | 0 | 100 | 99 | 94 | 100 | – | – | – | – | – | – | – |
| OC(Cn1cncn1)(C1=NOC(COc2ccc(Cl)cc2)C1)c1ccc(Cl)cc1 (single isomer, unassigned) [Compound 62] | 3 | 0 | 0 | 92 | 0 | 0 | 96 | – | – | – | – | – | – | – |
| OC(Cn1cncn1)(C1=NOC(Cc2ccccc2)C1)c1ccc(Cl)cc1 (single isomer, unassigned) [Compound 136] | – | – | – | – | – | – | – | 0 | 92 | 100 | 83 | 100 | 100 | – |
| CC1(c2ccc(Cl)cc2)CC(C(O)(Cn2cncn2)c2ccccc2)=NO1 (single isomer, unassigned) [Compound 210] | – | – | – | – | – | – | – | 0 | 0 | 100 | 41 | 100 | 100 | – |
| CC1(c2ccc(Cl)cc2)CC(C(O)(Cn2cncn2)c2ccccc2)=NO1 (single isomer, unassigned) [Compound 211] | – | – | – | – | – | – | – | 0 | 0 | 28 | 0 | 0 | 76 | – |
| CC1(c2ccc(Cl)cc2)CC(C(O)(Cn2cncn2)c2ccc(Cl)cc2)=NO1 (single isomer, unassigned) [Compound 212] | – | – | – | – | – | – | – | 0 | 28 | 100 | 0 | 96 | 100 | – |
| CC1(c2ccc(Cl)cc2)CC(C(O)(Cn2cncn2)c2ccc(Cl)cc2)=NO1 (single isomer, unassigned) [Compound 213] | – | – | – | – | – | – | – | 0 | 7 | 99 | 0 | 52 | 96 | – |
| OC(Cn1cncn1)(C1=NOC(c2ccccc2)(C(F)(F)F)C1)c1ccc(Cl)cc1 (single isomer, unassigned) [Compound 214] | – | – | – | – | – | – | – | – | – | – | – | – | – | Test C disease control rating (Phytophthora infestans): 0%; Test B disease control rating (Botrytis cinerea): 0%; Test F disease control rating [1]: 25%; Test E disease control rating (Zymoseptoria tritici): 1%; Test D disease control rating (Stagonospora nodorum): 0%; Test G disease control rating [2]: 99% |
| OC(Cn1cncn1)(C1=NOC(c2ccccc2)(C(F)(F)F)C1)c1ccc(Cl)cc1 (single isomer, unassigned) [Compound 215] | – | – | – | – | – | – | – | – | – | – | – | – | – | Test C disease control rating (Phytophthora infestans): 0%; Test B disease control rating (Botrytis cinerea): 0%; Test F disease control rating [1]: 100%; Test E disease control rating (Zymoseptoria tritici): 0%; Test D disease control rating (Stagonospora nodorum): 0%; Test G disease control rating [2]: 100% |
